Results published in patent publication US10881110B2, “Herbicidal compositions comprising isoxazolo[5,4-b]pyridines” (BASF SE, priority 2014, dated 2021).

Experiments:
Test in all cases: greenhouse post-emergence herbicidal test
[1] = system: APESV; type: in vivo, Apera spica-venti; design: key to herbicidal activity against APESV found: rating on a scale from 0 to 100; details: post emergence
Method: (§1) The culture containers used were plastic pots containing medium loamy sand with approximately 4.6% of humus and 69.9% sand as substrate. The seeds of the test plants were sown separately for each species.
(§2) For the post-emergence treatment, the test plants were grown to a plant height of from 1 to 15 cm, depending on the plant habit, and only then treated with the active compounds which had been suspended or emulsified in water. To this end, the test plants were either sown directly, and grown in the same containers, or they were first grown separately as seedlings and transplanted into the test containers a few days prior to treatment.
(§3) Depending on the species, the plants were kept at 10-25° C. and 20-35° C., respectively.
(§4) The test period extended over 1 to 3 weeks. During this time, the plants were tended and their response to the individual treatments was evaluated 20 days after treatment except mentioned otherwise.
(§5) Evaluation was carried out using a scale from 0 to 100. 100 means no emergence of the plants, or complete destruction of at least the above-ground parts, and 0 means no damage or normal course of growth.
(§6) The respective stated components A and B, and, if appropriate, C, were formulated as a 10% by weight strength emulsion concentrate and, with addition of the amount of solvent system, introduced into the spray liquor used for applying the active compound. In the examples, the solvent used was water.
(§7) In the examples below, using the method of S. R. Colby (1967) “Calculating synergistic and antagonistic responses of herbicide combinations”, Weeds 15, p. 22 ff., the value E, which is expected if the activity of the individual active compounds is only additive, was calculated. E=X+Y−(X·Y/100)

[2] = system: ERICA; type: in vivo, Conyza canadensis; design: key to herbicidal activity against ERICA found: rating on a scale from 0 to 100; details: post emergence
Method: as §1, §2, §3, §4, §5, §6, §7

[3] = system: ALOMY; type: in vivo, Alopecurus myosuroides; design: key to herbicidal activity against ALOMY found: rating on a scale from 0 to 100; details: post emergence
Method: as §1, §2, §3, §4, §5, §6, §7

[4] = system: GERDI; type: in vivo, Geranium dissectum; design: key to herbicidal activity against GERDI found: rating on a scale from 0 to 100; details: post emergence
Method: as §1, §2, §3, §4, §5, §6, §7

[5] = system: VIOAR; type: in vivo, Viola arvensis; design: key to herbicidal activity against VIOAR found / herbicidal activity against VIOLA found: rating on a scale from 0 to 100; details: post emergence
Method: as §1, §2, §3, §4, §5, §6, §7

[6] = system: ABUTH; type: in vivo, Abutilon theophrast; design: key to herbicidal activity against ABUTH found: rating on a scale from 0 to 100; details: post emergence
Method: as §1, §2, §3, §4, §5, §6, §7

[7] = system: PAPRH; type: in vivo, Papaver rhoeas; design: key: rating on a scale from 0 to 100
Method: as §1, §2, §3, §4, §5, §6, §7

[8] = system: POLCO; type: in vivo, Polygonum convolvulus; details: post emergence
Method: as §1, §2, §3, §4, §5, §6, §7

[9] = system: IPOHE; type: in vivo, Ipomoea hederacea; details: Ipomoea hederacea, post-emergence, 480 h, B.97 alone 750 g/ha a.i., post emergence; read-out: herbicidal activity against IPOHE found
Method: as §1, §2, §3, §4, §5, §6, §7

[10] = system: MATCH; type: in vivo, Matricaria recutita; design: key to herbicidal activity against MATCH found: rating on a scale from 0 to 100; details: post emergence
Method: as §1, §2, §3, §4, §5, §6, §7

[11] = system: GALAP; type: in vivo, Galium aparine; design: key to herbicidal activity against GALAP found: rating on a scale from 0 to 100; details: post emergence
Method: as §1, §2, §3, §4, §5, §6, §7

[12] = system: KCHSC; type: in vivo, Kochia scoparia; details: post emergence
Method: as §1, §2, §3, §4, §5, §6, §7

[13] = g/ha a.i.: I.1 62.5, B.52 2.5, mixture 62.5+2.5
[14] = g/ha a.i.: I.1 125, B.52 2.5, mixture 125+2.5
[15] = g/ha a.i.: I.1 31.25, B.52 2.5, mixture 31.25+2.5
[16] = g/ha a.i.: I.1 31.25, B.52 5, mixture 31.25+5

COc1cnc(OC)n2nc(NS(=O)(=O)c3c(OCC(F)F)cccc3C(F)(F)F)nc12 [B.52, penoxsulam]
herbicidal activity against APESV found [1, 13]: 55
herbicidal activity against APESV found [1, 14]: 55
herbicidal activity against ERICA found [2, 15]: 90
herbicidal activity against ERICA found [2, 16]: 90
herbicidal activity against ERICA found [2, 13]: 90
herbicidal activity against ERICA found ([2]; g/ha a.i.: I.1 62.5, B.52 5, mixture 62.5+5): 90
herbicidal activity against ALOMY found [3, 15]: 55
herbicidal activity against ALOMY found [3, 13]: 55
herbicidal activity against ALOMY found [3, 14]: 55
herbicidal activity against GERDI found [4, 15]: 80
herbicidal activity against GERDI found [4, 13]: 80
herbicidal activity against GERDI found [4, 14]: 80
herbicidal activity against VIOAR found [5, 13]: 0
herbicidal activity against VIOAR found [5, 14]: 0
herbicidal activity against VIOAR found ([5]; g/ha a.i.: I.1 125, B.52 5, mixture 125+5): 60
herbicidal activity against ABUTH found [6, 15]: 85
herbicidal activity against ABUTH found [6, 16]: 90
herbicidal activity against ABUTH found [6, 13]: 85

CCS(=O)(=O)c1nc2ccccn2c1S(=O)(=O)NC(=O)Nc1nc(OC)cc(OC)n1 [B.60, sulfosulfuron]
pest or weed control at 3 g/ha ([1]; Apera spica-venti, post-emergence, 480 h, 3 g/ha a.i., read-out: herbicidal activity against APESV found): 60%
pest or weed control at 3 g/ha ([2]; Erigeron canadensis, post-emergence, 480 h, 3 g/ha a.i., read-out: herbicidal activity against ERICA found): 75%
pest or weed control at 3 g/ha ([3]; Alopecurus myosuroides, post-emergence, 480 h, 3 g/ha a.i., read-out: herbicidal activity against ALOMY found): 60%
herbicidal activity against PAPRH found ([7]; 3 g/ha a.i.): 90
pest or weed control at 3 g/ha ([5]; Viola arvensis, post-emergence, 3 g/ha a.i., read-out: herbicidal activity against VIOAR found): 65%
pest or weed control at 3 g/ha ([8]; Fallopia convolvulus, post-emergence, 480 h, 3 g/ha a.i., read-out: herbicidal activity against POLCO found): 90%

CC1(C)CON(Cc2ccccc2Cl)C1=O [B.97, clomazone]
pest or weed control at 375 g/ha ([2]; Erigeron canadensis, post-emergence, 480 h, B.97 alone 375 g/ha a.i., read-out: herbicidal activity against ERICA found): 50%
pest or weed control at 750 g/ha ([2]; Erigeron canadensis, post-emergence, 480 h, B.97 alone 750 g/ha a.i., read-out: herbicidal activity against ERICA found): 65%
pest or weed control at 750 g/ha [9]: 45%
pest or weed control at 375 g/ha ([3]; Alopecurus myosuroides, post-emergence, 480 h, B.97 alone 375 g/ha a.i., read-out: herbicidal activity against ALOMY found): 45%
pest or weed control at 750 g/ha ([3]; Alopecurus myosuroides, post-emergence, 480 h, B.97 alone 750 g/ha a.i., read-out: herbicidal activity against ALOMY found): 60%
pest or weed control at 375 g/ha ([5]; Viola arvensis, post-emergence, B.97 alone 375 g/ha a.i., read-out: herbicidal activity against VIOAR found): 85%

CCC/C(=N\OCC)C1=C(O)CC(C2CCCSC2)CC1=O (stereo not shown) [cycloxidim]
herbicidal activity against APESV found ([1]; single active, 5 g/ha a.i.): 30
herbicidal activity against MATCH found ([10]; single active, 5 g/ha a.i.): 65
herbicidal activity against GERDI found ([4]; single active, 2.5 g/ha a.i.): 0
herbicidal activity against GERDI found ([4]; single active, 5 g/ha a.i.): 20
herbicidal activity against VIOAR found ([5]; single active, 2.5 g/ha a.i.): 0
herbicidal activity against GALAP found ([11]; single active, 5 g/ha a.i.): 25

CC(C)=NOCCOC(=O)[C@@H](C)Oc1ccc(Oc2cnc3cc(Cl)ccc3n2)cc1 [propaquizafop]
herbicidal activity against APESV found ([1]; applied alone at 5 g/ha a.i.): 65
herbicidal activity against ERICA found ([2]; applied alone at 5 g/ha a.i.): 0
herbicidal activity against KCHSC found ([12]; applied alone at 5 g/ha a.i.): 0
herbicidal activity against KCHSC found ([12]; applied alone at 10 g/ha a.i.): 10
herbicidal activity against ALOMY found ([3]; applied alone at 5 g/ha a.i.): 55
herbicidal activity against ALOMY found ([3]; applied alone at 10 g/ha a.i.): 65
herbicidal activity against GALAP found ([11]; applied alone at 5 g/ha a.i.): 0
herbicidal activity against GALAP found ([11]; applied alone at 10 g/ha a.i.): 10
herbicidal activity against POLCO found ([8]; applied alone at 5 g/ha a.i.): 0
herbicidal activity against POLCO found ([8]; applied alone at 10 g/ha a.i.): 0
herbicidal activity against ABUTH found ([6]; applied alone at 10 g/ha a.i.): 30

CCOC(=O)[C@@H](C)Oc1ccc(Oc2cnc3cc(Cl)ccc3n2)cc1 [quizalofop-p-ethyl]
herbicidal activity against ERICA found ([2]; applied alone at 7.5 g/ha a.i.): 0
herbicidal activity against ERICA found ([2]; applied alone at 15 g/ha a.i.): 20
herbicidal activity against MATCH found ([10]; applied alone at 15 g/ha a.i.): 0
herbicidal activity against PAPRH found ([7]; applied alone at 15 g/ha a.i.): 50
herbicidal activity against VIOAR found ([5]; applied alone at 7.5 g/ha a.i.): 0
herbicidal activity against VIOAR found ([5]; applied alone at 15 g/ha a.i.): 0
herbicidal activity against ABUTH found ([6]; applied alone at 7.5 g/ha a.i.): 15
herbicidal activity against ABUTH found ([6]; applied alone at 15 g/ha a.i.): 25
